In ChEMBL document CHEMBL5252573, “2,3-Dihydrosorbicillin and chrysopanol stimulate insulin secretion in INS-1 cells” (Bioorg Med Chem Lett, 2023) one finds Activity data, which are given here for eight compounds.

The subject of data set [1] is INS1. Description: Cytotoxicity against rat INS1 cells assessed as reduction in cell viability at 2.5 to 10 uM incubated for 24 hrs by MTT assay. The settings on record: ins1, 24 h, dose 2.5-10 µM. The format is toxicity, cell-based.
Data set [2] in a line: Induction of glucose stimulated insulin secretion in rat INS1 cells assessed as increase in insulin level at 10 uM incubated for 1 hr. The format is functional.
Data set [3] can be described thus: Induction of glucose stimulated insulin secretion in rat INS1 cells assessed as increase in insulin level at 5 uM incubated for 1 hr. It counts as functional.
The subject of data set [4] is INS1. The data set is described as follows: Upregulation of AKT protein expression in rat INS1 cells at 10 uM incubated for 24 hrs by Western blot analysis. The format is functional, cell-based. On the technique in general: Immunoblotting shows a protein as a band on a membrane.
In data set [5] the test system is INS1. Description: Upregulation of IRS-2 protein expression in rat INS1 cells at 10 uM incubated for 24 hrs by Western blot analysis. The format is functional, cell-based.
Data set [6] has as its system INS1. Description: Upregulation of PI3K protein expression in rat INS1 cells at 10 uM incubated for 24 hrs by Western blot analysis. It counts as functional, cell-based.
In data set [7] the test system is INS1. Description: Upregulation of PPARgamma protein expression in rat INS1 cells at 10 uM incubated for 24 hrs by Western blot analysis. The format is functional, cell-based.
Data set [8] concerns INS1. Description: Upregulation of PDX-1 protein expression in rat INS1 cells at 10 uM incubated for 24 hrs by Western blot analysis. It counts as functional, cell-based.
For data set [9], the system named is INS1. The data set is described as follows: Upregulation of PDX-1 protein expression in rat INS1 cells at 5 uM incubated for 24 hrs by Western blot analysis. It counts as functional, cell-based.
The test system of data set [10] is INS1. Description: Upregulation of PI3K protein expression in rat INS1 cells at 5 uM incubated for 24 hrs by Western blot analysis. The format is functional, cell-based.
The subject of data set [11] is INS1. The data set is described as follows: Upregulation of IRS-2 protein expression in rat INS1 cells at 5 uM incubated for 24 hrs by Western blot analysis. The format is functional, cell-based.
A short description of data set [12]: Induction of glucose stimulated insulin secretion in rat INS1 cells assessed as increase in insulin level at 2.5 uM incubated for 1 hr. It counts as functional.
Data set [13] concerns INS1. The data set is described as follows: Upregulation of PPARgamma protein expression in rat INS1 cells at 5 uM incubated for 24 hrs by Western blot analysis. It counts as functional, cell-based.
The test system of data set [14] is INS1. Description: Upregulation of AKT protein expression in rat INS1 cells at 5 uM incubated for 24 hrs by Western blot analysis. It counts as functional, cell-based.

The source made the active and inactive calls. The calls are words filed in the database; no cut-off is given here.

In the case of `COC(=O)[C@@]12Oc3ccc(-c4ccc5c(c4O)C(=O)C4=C(O)C[C@H](C)[C@@H](O)[C@]4(C(=O)OC)O5)c(O)c3C(=O)C1=C(O)C[C@H](C)[C@H]2O`, in the data set on INS1 [1], the Activity entry is listed as “Non-Toxic”.

For the compound `Cc1cc(O)c2c(c1)C(=O)c1cc(O)cc(O)c1C2=O` [EMODIN], the Activity result in the data set on INS1 [1] is on record as “Non-Toxic”.

Take `C=CC(C)(C)[C@@]12C=C(O)C(=O)N3/C(=C/c4cnc[nH]4)C(=O)N[C@]31N(OC)c1ccccc12`: the Activity entry in the data set on INS1 [1] was “Non-Toxic”.

For `C=CC(C)(C)[C@@]12C=C(O)C(=O)N3/C(=C/c4c[nH]cn4)C(=O)N[C@]31N(O)c1ccccc12`, the Activity in [2] was 12.86 ng/mL; in the data set with INS1 [1], “Non-Toxic”; in data set [3] it was 12.05 ng/mL.

`Cc1ccc(S(=O)(=O)NC(=O)NN2CC3CCCC3C2)cc1` (stereo unspecified) [GLICLAZIDE]: the Activity was found to be 20.85 ng/mL in [2] and 9.69 ng/mL in data set [3].

As for `C/C=C/CCC(=O)c1cc(C)c(O)c(C)c1O`, the outcome in the data set on INS1 [4], in the data set on INS1 [5], in the data set with INS1 [6], in the data set on INS1 [7] and in the data set on INS1 [8] was Active. For the same compound, the Activity in [2] is 15.57 ng/mL; in the data set on INS1 [1], “Non-Toxic”; in data set [3], 8.92 ng/mL.

Take `CC(O)c1nc2ccccc2c(=O)[nH]1` (stereo unspecified): in the data set with INS1 [1], the Activity entry is reported as “Non-Toxic”.

As to `Cc1cc(O)c2c(c1)C(=O)c1cccc(O)c1C2=O` [CHRYSOPHANOL], the outcome in the data set with INS1 [9], in the data set on INS1 [10], with INS1 [11], in the data set on INS1 [13] and in the data set on INS1 [14] was Active. Moreover, the Activity in [12] is 8.81 ng/mL; in [2], 24.23 ng/mL; in the data set with INS1 [1], “Non-Toxic”; in data set [3] it was 20.01 ng/mL.
